Each compound was assayed against recombinant Human Phosphodiesterase B2 (PDE4B2) (Homo sapiens, UniProt Q07343) (assay: Human Phosphodiesterase B2 Radiometric Assay (yttrium silicate SPA beads, [3H]cyclic AMP)). Settings: recombinant human PDE4B2, radiometric SPA assay, 8 nM [3H]cyclic AMP; read-out: PDE4B2 pIC50 (converted).
Chain of recombinant Human Phosphodiesterase B2 (PDE4B2) (Q07343 1-564 isoform Q07343-2): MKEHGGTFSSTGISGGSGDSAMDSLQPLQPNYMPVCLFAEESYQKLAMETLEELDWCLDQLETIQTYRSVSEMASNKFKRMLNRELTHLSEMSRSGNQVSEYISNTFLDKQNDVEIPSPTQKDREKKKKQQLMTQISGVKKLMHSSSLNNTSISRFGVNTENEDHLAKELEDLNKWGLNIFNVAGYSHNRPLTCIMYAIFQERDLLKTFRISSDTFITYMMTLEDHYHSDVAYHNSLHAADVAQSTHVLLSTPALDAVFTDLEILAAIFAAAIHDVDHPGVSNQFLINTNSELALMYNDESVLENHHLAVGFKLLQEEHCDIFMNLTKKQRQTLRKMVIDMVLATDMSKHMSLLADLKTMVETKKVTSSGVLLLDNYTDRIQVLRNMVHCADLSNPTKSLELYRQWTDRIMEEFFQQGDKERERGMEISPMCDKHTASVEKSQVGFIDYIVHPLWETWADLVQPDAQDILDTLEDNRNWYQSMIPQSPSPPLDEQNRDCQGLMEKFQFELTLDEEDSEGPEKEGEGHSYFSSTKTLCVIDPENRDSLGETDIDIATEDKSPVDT
Type: biochemical
Procedure: Human Phosphodiesterase B2 Radiometric Assay
The assay uses recombinant Human Phosphodiesterase B2 (PDE4B2) produced in house (PrAZL0163), stored at −20° C. This assay is based on the observation that 5′AMP, the product of the reaction catalysed by PDE4, binds preferentially to yttrium silicate SPA beads (Amersham Biosciences, UK) compared to the substrate, cAMP. Compounds at the appropriate concentration were preincubated at 30 C for 30 min with an assay buffer containing 50 mM HEPES (pH 7.5), 8.3 mM MgCl2, 1.7 mM EGTA, 0.01% (w/v) Brij° 35 and 0.1 mg/mL recombinant PDE4B2. The reaction was started by the addition of [3H]cyclic AMP to give a final concentration of 8 nM, and was stopped 20 minutes after the addition of the substrate by the addition of yttrium silicate SPA beads containing 18 mM Zn SO4. Bound [3H]cyclic AMP was measured using a Topcount NXT (Packard Bioscience, UK). pIC50 values (presented in Table 15) were determined using Xlfit3 curve fitting, using model 205.
Cc1cccc2nc(CN[C@H]3CC[C@@H](n4c(=O)c5cc(F)cnc5n(-c5cccc(-c6ccc(O)cc6CN6CCOCC6)c5)c4=O)CC3)cn12 [Example 335, 6-fluoro-1-[4′-hydroxy-2′-(morpholin-4-ylmethyl)biphenyl-3-yl]-3-(cis-4-{[(5-methylimidazo[1,2-c]pyridin-2-yl)methyl]amino}cyclohexyl)pyrido[2,3-d]pyrimidine-2,4(1H,3H)-dione] gave an IC50 of 0.00794 nM. In the case of O=C(N[C@H]1CC[C@@H](n2c(=O)c3cc(F)cnc3n(-c3cccc(-c4ccc(CCN5CCOCC5)cc4)c3)c2=O)CC1)c1cn2cc(F)ccc2n1 [Example 50, 6-fluoro-N-{cis-4-[6-fluoro-1-[4′-(2-morpholin-4-ylethyl)biphenyl-3-yl]-2,4-dioxo-1,4-dihydropyrido[2,3-d]pyrimidin-3(2H)-yl]cyclohexyl}imidazo[1,2-c]pyridine-2-carboxamide], the IC50 is reported as 0.00794 nM. O=C(N[C@H]1CC[C@@H](n2c(=O)c3cc(F)cnc3n(-c3cccc(-c4ccc(CN5CCC[C@H]5CO)cc4)c3)c2=O)CC1)c1cn2c(n1)CCCC2 [Example 226, N-{cis-4-[6-fluoro-1-(4′-{[(2S)-2-(hydroxymethyl)pyrrolidin-1-yl]methyl}biphenyl-3-yl)-2,4-dioxo-1,4-dihydropyrido[2,3-d]pyrimidin-3(2H)-yl]cyclohexyl}-5,6,7,8-tetrahydroimidazo[1,2-a]pyridine-2-carboxamide] gave an IC50 of 0.0501 nM. CN(C)Cc1ccccc1-c1cccc(-n2c(=O)n([C@H]3CC[C@@H](NC(=O)[C@H]4CCCN4C)CC3)c(=O)c3cc(F)cnc32)c1 [Example 88, N-{cis-4-[1-{2′-[(dimethylamino)methyl]biphenyl-3-yl}-6-fluoro-2,4-dioxo-1,4-dihydropyrido[2,3-d]pyrimidin-3(2H)-yl]cyclohexyl}-1-methyl-D-prolinamide] gave an IC50 of 50.1 nM. COc1ccc(CN[C@H]2CC[C@@H](n3c(=O)c4cc(F)cnc4n(-c4cccc(-c5ccc(CN6CCN(C(C)C)CC6)cc5)c4)c3=O)CC2)cc1OC(C)=O [Example 257, 5-[({cis-4-[6-Fluoro-1-{4′-[(4-isopropylpiperazin-1-yl)methyl]biphenyl-3-yl}-2,4-dioxo-1,4-dihydropyrido[2,3-d]pyrimidin-3(2H)-yl]cyclohexyl}amino)methyl]-2-methoxyphenyl acetate] was tested, and the IC50 was 0.794 nM. CC(=O)N[C@H]1CC[C@@H](n2c(=O)c3cc(F)cnc3n(-c3cccc(-c4ccc(CN(C)C)cc4)c3)c2=O)CC1 [Example 89, N-{cis-4-[1-{4′-[(dimethylamino)methyl]biphenyl-3-yl}-6-fluoro-2,4-dioxo-1,4-dihydropyrido[2,3-d]pyrimidin-3(2H)-yl]cyclohexyl}acetamide] was tested, and the IC50 was 2 nM. Compound CC(C)N1CCN(Cc2ccc(-c3cccc(-n4c(=O)n([C@H]5CC[C@@H](NC(=O)C6(N(C)C)CC6)CC5)c(=O)c5cc(F)cnc54)c3)cc2)CC1 [Example 129, 1-(dimethylamino)-N-{cis-4-[6-fluoro-1-{4′-[(4-isopropylpiperazin-1-yl)methyl]biphenyl-3-yl}-2,4-dioxo-1,4-dihydropyrido[2,3-d]pyrimidin-3(2H)-yl]cyclohexyl}cyclopropanecarboxamide] has an IC50 of 0.0398 nM. Work on CN(Cc1ccc(-c2cccc(-n3c(=O)n([C@H]4CC[C@@H](NC(=O)c5cn6c(n5)CCCC6)CC4)c(=O)c4cc(F)cnc43)c2)cc1)C(C)(C)C [Example 136, N-{cis-4-[1-(4′-{[tert-butyl(methyl)amino]methyl}biphenyl-3-yl)-6-fluoro-2,4-dioxo-1,4-dihydropyrido[2,3-d]pyrimidin-3(2H)-yl]cyclohexyl}-5,6,7,8-tetrahydroimidazo[1,2-a]pyridine-2-carboxamide] yielded an IC50 of 0.0316 nM. In the case of N[C@H]1CC[C@@H](n2c(=O)c3cc(F)cnc3n(-c3cccc(-c4ccccc4CN4CCOCC4)c3)c2=O)CC1 [Example 46, 3-(cis-4-aminocyclohexyl)-6-fluoro-1-[2′-(morpholin-4-ylmethyl)biphenyl-3-yl]pyrido[2,3-d]pyrimidine-2,4(1H,3H)-dione], the IC50 is reported as 2 nM. For CC(C)N1CCN(Cc2ccc(-c3cccc(-n4c(=O)n([C@H]5CC[C@@H](NC(=O)c6nccn6C)CC5)c(=O)c5cc(F)cnc54)c3)cc2)CC1 [Example 239, N-{cis-4-[6-fluoro-1-{4′-[(4-isopropylpiperazin-1-yl)methyl]biphenyl-3-yl}-2,4-dioxo-1,4-di-hydropyrido[2,3-d]pyrimidin-3(2H)-yl]cyclohexyl}-1-methyl-1H-imidazole-2-carboxamide], the IC50 was 0.316 nM. In the case of CN(CC(=O)N(C)C)Cc1cc(O)ccc1-c1cccc(-n2c(=O)n([C@H]3CC[C@@H](NCc4cn5cc(F)ccc5n4)CC3)c(=O)c3cc(F)cnc32)c1 [Example 378, N~2~-({3′-[6-fluoro-3-(cis-4-{[(6-fluoroimidazo[1,2-a]pyridin-2-yl)methyl]amino}cyclohexyl)-2,4-dioxo-3,4-dihydropyrido[2,3-d]pyrimidin-1(2H)-yl]-4-hydroxybiphenyl-2-yl}methyl)-N,N,N~2~-trimethylglycinamide], the IC50 is reported as 0.316 nM. O=C(N[C@H]1CC[C@@H](n2c(=O)c3cc(F)cnc3n(-c3cccc(-c4ccc(O)cc4)c3)c2=O)CC1)c1cn2cc(F)ccc2n1 [Example 22, 6-fluoro-N-{cis-4-[6-fluoro-1-(4′-hydroxybiphenyl-3-yl)-2,4-dioxo-1,4-dihydropyrido[2,3-d]pyrimidin-3(2H)-yl]cyclohexyl}imidazo[1,2-a]pyridine-2-carboxamide.] gave an IC50 of 0.0251 nM. O=C(NCc1ccccc1)c1cccc(-n2c(=O)n([C@H]3CC[C@@H](NC(=O)c4cn5cc(F)ccc5n4)CC3)c(=O)c3cc(F)cnc32)c1 [Example 92, N-{cis-4-[1-{3-[(benzylamino)carbonyl]phenyl}-6-fluoro-2,4-dioxo-1,4-dihydropyrido[2,3-d]pyrimidin-3(2H)-yl]cyclohexyl}-6-fluoroimidazo[1,2-a]pyridine-2-carboxamide] gave an IC50 of 0.631 nM. In the case of O=C(CN1CCCCC1)N[C@H]1CC[C@@H](n2c(=O)c3cc(F)cnc3n(-c3cccc(-c4ccc(O)cc4CN4CCOCC4)c3)c2=O)CC1 [Example 333, N-{cis-4-[6-fluoro-1-[4′-hydroxy-2′-(morpholin-4-ylmethyl)biphenyl-3-yl]-2,4-dioxo-1,4-dihydropyrido[2,3-d]pyrimidin-3(2H)-yl]cyclohexyl}-2-piperidin-1-ylacetamide], the IC50 is reported as 2 nM. O=c1c2cc(F)cnc2n(-c2cccc(-c3ccccc3)c2)c(=O)n1[C@@H]1CCNC1 [Example 107, 1-biphenyl-3-yl-6-fluoro-3-[(3R)-pyrrolidin-3-yl]pyrido[2,3-d]pyrimidine-2,4(1H,3H)-dione] was tested, and the IC50 was 100 nM. Work on NCCNC(=O)c1cccc(-n2c(=O)n([C@H]3CC[C@@H](NC(=O)c4cn5ccccc5n4)CC3)c(=O)c3cc(F)cnc32)c1 [Example 5, N-{cis-4-[1-(3-{[(2-aminoethyl)amino]carbonyl}phenyl)-6-fluoro-2,4-dioxo-1,4-dihydropyrido[2,3-d]pyrimidin-3(2H)-yl]cyclohexyl}imidazo[1,2-a]pyridine-2-carboxamide] yielded an IC50 of 39.8 nM. For O=C(N[C@H]1CC[C@@H](n2c(=O)c3cc(F)cnc3n(-c3cccc(-c4ccccc4)c3)c2=O)CC1)c1cn2cc(F)ccc2n1 [Example 1, N-[cis-4-(1-biphenyl-3-yl-6-fluoro-2,4-dioxo-1,4-dihydropyrido[2,3-d]pyrimidin-3(2H)-yl)cyclohexyl]-6-fluoroimidazo[1,2-c]pyridine-2-carboxamide], the IC50 was 0.0251 nM. With N[C@H]1CC[C@@H](n2c(=O)c3cc(F)cnc3n(-c3cccc(-c4ccc(O)cc4CN4CCNC(=O)CC4)c3)c2=O)CC1 [Example 369, 3-(cis-4-aminocyclohexyl)-6-fluoro-1-{4′-hydroxy-2′-[(5-oxo-1,4-diazepan-1-yl)methyl]biphenyl-3-yl}pyrido[2,3-d]pyrimidine-2,4(1H,3H)-dione] the IC50 was 6.31 nM. Work on O=C(N[C@H]1CC[C@@H](n2c(=O)c3cc(F)cnc3n(-c3cccc(-c4ccccc4C(=O)O)c3)c2=O)CC1)c1cn2cc(F)ccc2n1 [Example 60, 3′-[6-fluoro-3-(cis-4-{[(6-fluoroimidazo[1,2-a]pyridin-2-yl)carbonyl]amino}cyclohexyl)-2,4-dioxo-3,4-dihydropyrido[2,3-d]pyrimidin-1(2H)-yl]biphenyl-2-carboxylic acid] yielded an IC50 of 6.31 nM. C[C@H]1COCCN1Cc1cc(O)ccc1-c1cccc(-n2c(=O)n([C@H]3CC[C@@H](NCc4cn5cc(F)ccc5n4)CC3)c(=O)c3cc(F)cnc32)c1 [Example 317, 6-fluoro-3-(cis-4-{[(6-fluoroimidazo[1,2-a]pyridin-2-yl)methyl]amino}cyclohexyl)-1-(4′-hydroxy-2′-{[(3S)-3-methylmorpholin-4-yl]methyl}biphenyl-3-yl)pyrido[2,3-d]pyrimidine-2,4(1H,3H)-dione] showed an IC50 of 0.01 nM. For Cn1ncc(CN[C@H]2CC[C@@H](n3c(=O)c4cc(F)cnc4n(-c4cccc(-c5ccc(CN6CCCOCC6)cc5)c4)c3=O)CC2)c1-c1ccccc1 [Example 265, 6-fluoro-3-(cis-4-{[(1-methyl-5-phenyl-1H-pyrazol-4-yl)methyl]amino}cyclohexyl)-1-[4′-(1,4-oxazepan-4-ylmethyl)biphenyl-3-yl]pyrido[2,3-d]pyrimidine-2,4(1H,3H)-dione], the IC50 was 2 nM.

Reference: patent US20100204203A1, “Chemical Compounds 637: Pyridopyrimidinediones as PDE4 Inhibitors” (priority 2007, published 2010)
